Measured values taken from US20120165346A1, “Compounds and their use as BACE inhibitors” (ASTRAZENECA AB, priority 2010, published 2012).

Assays:
[1] = molecular target: T1, human β-Secretase (AA 1-AA 460), sBACE-Fc (Homo sapiens, UniProt P56817); assay: Diluted TR-FRET assay; assay type: biochemical; details: footnote a: diluted FRET assay, 50 times less enzyme, 6.5 h reaction time at r.t.; read-out: IC50 in TR-FRET assay (IC50 from the diluted FRET assay)
T1 construct: soluble part of the human β-Secretase (AA 1-AA 460) was cloned; Fc domain of IgG1; made in house
T1 sequence (P56817 22-460): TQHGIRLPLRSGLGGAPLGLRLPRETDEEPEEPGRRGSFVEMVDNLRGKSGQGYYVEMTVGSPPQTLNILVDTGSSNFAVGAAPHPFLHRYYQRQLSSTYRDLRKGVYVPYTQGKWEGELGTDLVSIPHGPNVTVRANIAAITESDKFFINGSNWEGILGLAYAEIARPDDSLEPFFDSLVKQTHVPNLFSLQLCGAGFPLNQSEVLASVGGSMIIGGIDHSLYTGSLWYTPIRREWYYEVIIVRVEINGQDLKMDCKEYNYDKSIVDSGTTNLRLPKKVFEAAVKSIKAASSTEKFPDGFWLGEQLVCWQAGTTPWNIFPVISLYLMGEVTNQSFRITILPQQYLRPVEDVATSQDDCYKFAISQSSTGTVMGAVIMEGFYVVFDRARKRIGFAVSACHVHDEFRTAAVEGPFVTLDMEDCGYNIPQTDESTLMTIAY
Method: The cDNA for the soluble part of the human β-Secretase (AA 1-AA 460) was cloned using the ASP2-Fc10-1-IRES-GFP-neoK mammalian expression vector. The gene was fused to the Fc domain of IgG1 (affinity tag) and stably cloned into HEK 293 cells.
The robotic systems Biomek FX and Velocity 11 were used for all liquid handling and the enzyme and substrate solutions were kept on ice until they were placed in the robotic system. Enzyme (9 μA) was added to the plate then 1 μA of compound in dimethylsulphoxide was added, mixed and pre-incubated for 10 minutes. Substrate (10 μA) was then added, mixed and the reaction proceeded for 15 minutes at r.t. The reaction was stopped with the addition of Stop solution (7 μl, NaAcetate, pH 9). […] The dimethylsulphoxide control, instead of test compound, defined the 100% activity level and 0% activity was defined by wells lacking enzyme (replaced with reaction buffer).

[2] = tested on: sAPPβ release, SH-SY5Y cells; assay: sAPPβ release assay; assay type: cell-based; details: Homo sapiens, compounds incubated 17 h
Method: SH-SY5Y cells were cultured in DMEM/F-12 with Glutamax, 10% FCS and 1% non-essential amino acids and cryopreserved and stored at −140° C. at a concentration of 7.5−9.5×10^6 cells per vial. Thaw cells and seed at a conc. of around 10000 cells/well in DMEM/F-12 with Glutamax, 10% FCS and 1% non-essential amino acids to a 384-well tissue culture treated plate, […] cell susp/well. The cell plates were then incubated for 7-24 h at 37° C., 5% CO2. The cell medium was removed, followed by addition of 30 μL compound diluted in DMEM/F-12 with Glutamax, 10% FCS, 1% non-essential amino acids and 1% PeSt to a final conc. of 1% DMSO. The compounds were incubated with the cells for 17 h (overnight) at 37° C., 5% CO2. Meso Scale Discovery (MSD) plates were used for the detection of sAPPβ release. MSD sAPPβ plates were blocked in 1% BSA in Tris wash buffer (40 μL/well) for 1 h on shake at r.t. and washed 1 time in Tris wash buffer (40 μL/well). 20 μL of medium was transferred to the pre-blocked and washed is MSD sAPPβ microplates, and the cell plates were further used in an ATP assay to measure cytotoxicity. The MSD plates were incubated with shaking at r.t. for 2 h and the media discarded. 10 μL detection antibody was added (1 nM) per well followed by incubation with shaking at r.t. for 2 h and then discarded. 40 μL Read Buffer was added per well and the plates were read in a SECTOR Imager.

IC50 [1] [nM] | IC50 [2] [nM] | Structure (SMILES)
13 | 4 | CCn1cc(C2(c3cccc(-c4cncc(F)c4)c3)N=C(N)c3c(F)cccc32)cc(C)c1=O (centres unmarked) [Example 9, 5-(3-Amino-4-fluoro-1-(3-(5-fluoropyridin-3-yl)phenyl)-1H-isoindol-1-yl)-1-ethyl-3-methylpyridin-2(1H)-one]
6 | 4 | CC#Cc1cncc(-c2cccc(C3(c4cc(C(F)F)c(=O)n(CC)c4)N=C(N)c4c(F)cccc43)c2)c1 (centres unmarked) [Example 23, 5-(3-Amino-4-fluoro-1-(3-(5-(prop-1-ynyl)pyridin-3-yl)phenyl)-1H-isoindol-1-yl)-3-(difluoromethyl)-1-ethylpyridin-2(1H)-one]
8 | 2 | CCn1cc(C2(c3cccc(-c4cncc(C#N)c4)c3)N=C(N)c3c(F)cccc32)cc(C)c1=O (centres unmarked) [Example 8, 5-(3-(3-Amino-1-(1-ethyl-5-methyl-6-oxo-1,6-dihydropyridin-3-yl)-4-fluoro-1H-isoindol-1-yl)phenyl)nicotinonitrile]
5 | 2 | CC#Cc1ccnc(-c2cccc([C@@]3(c4cc(C)c(=O)n(CC)c4)N=C(N)c4c(F)cccc43)c2)c1 [Example 25, (R)-5-(3-Amino-4-fluoro-1-(3-(4-(prop-1-ynyl)pyridin-2-yl)phenyl)-1H-isoindol-1-yl)-1-ethyl-3-methylpyridin-2(1H)-one]
